“Also recorded” adds a separate entry of the source.
Test system: male Wistar rats
Assay: MK-801-induced persistent latent inhibition (LI), thirst motivated conditioned emotional response procedure
Type: in vivo, rat
Excerpt: Latent inhibition (“LI”) is the process whereby pre-exposure to a stimulus retards conditioning to this stimulus when it is subsequently paired with reinforcement, and it has been used extensively to model cognitive impairments in schizophrenia. […] Briefly, amphetamine disrupts LI in rats and normal humans, and this is paralleled by disrupted LI in acute schizophrenia patients. Amphetamine-induced LI disruption is reversed by both typical and atypical APDs.
The rats used were male Wistar rats approximately five months old, weighing 350 g to 500 g.
Rats were tested in Campden Instruments rodent test chambers with a retractable bottle. When the bottle was not present, the hole was covered by a metal lid. Licks were detected by a Campden Instruments drinkometer. The preexposed to-be-conditioned stimulus was a 10 sec, 80 dB, 2.8 kHz tone produced by a Sonalert module. Shock was supplied through the floor by a Campden Instruments shock generator and shock scrambler set at 0.5 mA and 1 sec duration. Equipment programming and data recording were computer controlled.
LI was measured in a thirst motivated conditioned emotional response (“CER”) procedure by comparing the suppression of drinking to a tone previously paired with a foot shock in rats that received non-reinforced exposure to the tone prior to conditioning (preexposed) and in rats for whom the tone was novel (non-preexposed).
Prior to the beginning of each LI experiment, rats were handled for about 2 min daily for 8 days. On day 9, a 23 h water restriction schedule was initiated and continued throughout the experiment. After 5 days of deprivation (days 9-13), rats were trained to drink in the experimental chambers for the next 5 days (days 14-18), for 20 min during the 1st day and for 15 min per day during each of the next 4 days. Water in the test apparatus was given in addition to the daily ration of 1 h given in the home cages. The LI procedure was conducted on days 19-22 and consisted of the following stages:
With the bottle removed, the preexposed (“PE”) rats received 40 tone presentations with an inter-stimulus interval of 50 sec. The nonpreexposed (“NPE”) rats were confined to the chamber for an identical period of time without receiving the tone.
With the bottle removed, each rat received 5 tone-shock pairings given 5 min apart. Shock immediately followed tone termination. The first tone-shock pairing was given 5 min after the start of the session. After the last pairing, rats were left in the experimental chamber for an additional 5 min. […]
Each rat was placed in the chamber and allowed to drink from the bottle. […] The following times were recorded: Time to first lick, time to complete licks 1-50, time to complete licks 51-75 (before tone onset) and time to complete licks 76-100 (after tone onset). […]

Molecule | LI (difference between preexposed and nonpreexposed groups in log times to complete licks 76-100) (MK-801 0.05 mg/kg i.p. 30 min before conditioning, vehicle pretreatment, 40 preexposures, 5 conditioning trials) | LI / reversal of abnormally persistent LI in MK-801-treated rats (25 mg/kg ladostigil tartrate p.o. chronic + MK-801 0.05 mg/kg i.p.) | LI (difference between preexposed and nonpreexposed groups in log times to complete licks 76-100) (37.5 mg/kg ladostigil tartrate p.o. chronic + MK-801 0.05 mg/kg i.p.) | Effect on LI of drug on its own (ladostigil tartrate 25 mg/kg and 37.5 mg/kg p.o. chronic + saline (no MK-801))
C[C@]12N[C@H](Cc3ccccc31)c1ccccc12 [MK-801, dizocilpine, reference compound] | significant difference between the preexposed and nonpreexposed groups, namely, LI; also recorded: persisted in showing LI |  |  | 
R(+)-6-(N-methyl, N-ethyl-carbamoyloxy)-N′-propargyl-1-aminoindan ½ tartrate [ladostigil tartrate] |  | reversed abnormally persistent LI | significant difference between the preexposed and nonpreexposed groups, namely, LI | had no effect

Reference: patent publication US20070232691A1, “Use of ladostigil for the treatment of schizophrenia” (priority 2006, published 2007)
